Test results taken from ChEMBL document CHEMBL1157845, “Structure-activity relationship of new anti-tuberculosis agents derived from oxazoline and oxazole benzyl esters” (Eur J Med Chem, 2010).
In brackets after ≈: the same amount, converted by molar mass. Activity calls are given as the source filed them. Unless noted, no cut-off for these calls is given here.

What was measured:
Liver microsomes = assay: Metabolic stability in Sprague-Dawley rat microsomes assessed as compound remaining after 15 mins by HPLC analysis; format: ADME, Microsome; conditions: 0.25 h
Mycolicibacterium vaccae [1] = assay: Antimycobacterial activity against Mycobacterium vaccae 10670 by agar diffusion assay; format: functional, organism-based
Mycolicibacterium aurum [2] = assay: Antimycobacterial activity against Mycobacterium aurum DSM 43536; format: functional, organism-based
[3] = test system: Mycolicibacterium smegmatis; assay: Antimycobacterial activity against Mycobacterium smegmatis SG 987; format: functional, organism-based
Escherichia coli = assay: Antibacterial activity against Escherichia coli SG 458; format: functional, organism-based
Mycobacterium avium [4] = assay: Antimycobacterial activity against Mycobacterium avium MAC 108; format: functional, organism-based
Mycobacterium avium [5] = assay: Antimycobacterial activity against Mycobacterium avium MAC 109; format: functional, organism-based
Mycolicibacterium vaccae [6] = assay: Antimycobacterial activity against Mycobacterium vaccae 10670; format: functional, organism-based
Mycobacterium avium [7] = assay: Antimycobacterial activity against Mycobacterium avium MAC 101; format: functional, organism-based
Staphylococcus aureus = assay: Antibacterial activity against Staphylococcus aureus SG 511; format: functional, organism-based
Mycobacterium avium [8] = assay: Antimycobacterial activity against Mycobacterium avium MAC 116; format: functional, organism-based
Mus musculus [9] = assay: Toxicity in mouse assessed as behavioral change at 100 mg/kg, po qd for 5 days followed by 2 days rest and 200 mg/kg, po qd for 5 days; format: organism-based; conditions: in vivo
[10] = test system: Mycobacterium tuberculosis; assay: Antimycobacterial activity against Mycobacterium tuberculosis H37Rv ATCC 27294 incubated 10 days under anaerobic condition measured after 24 hrs recovery in air by luciferase based low oxygen recovery assay; format: functional
Vero = assay: Cytotoxicity against african green monkey Vero cells by colorimetric assay; format: cell-based; conditions: Chlorocebus sabaeus
[11] = Chemical stability in simulated gastric fluid assessed as compound remaining after 2 hrs by HPLC analysis; format: physicochemical; conditions: simulated gi fluid
Candida albicans = assay: Antifungal activity against Candida albicans; format: functional, organism-based
[12] = test system: Mycobacterium tuberculosis; assay: Antimycobacterial activity against Mycobacterium tuberculosis H37Rv ATCC 27294 in GAS medium after 1 week by microplate alamar blue assay; format: functional; conditions: H37Rv ATCC 27294, 168 h
Micrococcus luteus = assay: Antibacterial activity against Micrococcus luteus ATCC 10240; format: functional, organism-based
Proteus vulgaris = assay: Antibacterial activity against Proteus vulgaris OX 19; format: functional, organism-based
Mus musculus [13] = assay: Toxicity in mouse assessed as change in gross appearance at 100 mg/kg, po qd for 5 days followed by 2 days rest and 200 mg/kg, po qd for 5 days; format: organism-based; conditions: in vivo
[14] = test system: Mycobacterium tuberculosis; assay: Antimycobacterial activity against Mycobacterium tuberculosis Erdman infected in BALB/c mouse assessed as reduction of bacterial load at 200 mg/kg, po qd for 5 days per week administered 60 days after infection measured after 85 days post infection; format: functional, organism-based; parameters: dose 200 mg/kg
Colletotrichum = assay: Antifungal activity against Glomerella; format: functional, organism-based
Mycolicibacterium aurum [15] = assay: Antimycobacterial activity against Mycobacterium aurum SB 66; format: functional, organism-based
[16] = test system: Mycolicibacterium fortuitum; assay: Antimycobacterial activity against Mycobacterium fortuitum B by agar diffusion assay; format: functional, organism-based
[17] = test system: Mycobacterium tuberculosis; assay: Antimycobacterial activity against Mycobacterium tuberculosis H37Rv ATCC 27294 in GAST medium after 1 week by microplate alamar blue assay; format: functional; conditions: H37Rv ATCC 27294, 168 h
Mycobacterium avium [18] = assay: Antimycobacterial activity against Mycobacterium avium MAC 100; format: functional, organism-based
[19] = test system: Mycolicibacterium fortuitum; assay: Antimycobacterial activity against Mycobacterium fortuitum B; format: functional, organism-based
Mus musculus [20] = assay: Toxicity in mouse assessed as change in body weight at 100 mg/kg, po qd for 5 days followed by 2 days rest and 200 mg/kg, po qd for 5 days; format: organism-based; conditions: in vivo
[21] = test system: Sporobolomyces salmonicolor; assay: Antimicrobial activity against Sporobolomyces salmonicolor SBUG 549; format: functional, organism-based
Bacillus subtilis = assay: Antibacterial activity against Bacillus subtilis ATCC 6633; format: functional, organism-based

SMILES: O=C(OCc1ccccc1)[C@@H]1COC(c2ccc(F)c([N+](=O)[O-])c2)=N1
- Stability (Liver microsomes): 13%
- Activity (Mycolicibacterium vaccae [1]): Active
- Activity (Mycolicibacterium aurum [2]): inactive
- Activity [3]: inactive
- Activity (Escherichia coli): inactive
- Activity (Mycobacterium avium [4]): inactive
- Activity (Mycobacterium avium [5]): inactive
- Activity (Mycolicibacterium vaccae [6]): inactive
- Activity (Mycobacterium avium [7]): inactive
- Activity (Staphylococcus aureus): inactive
- Activity (Mycobacterium avium [8]): inactive
- Activity (Mus musculus [9]): Non-toxic
- MIC [10]: 26 µM (≈ 8.95 µg/mL)
- IC50 (Vero): > 128 µM
- Stability [11]: 2.2%
- Activity (Candida albicans): inactive
- MIC [12]: 6.24 µM (≈ 2.15 µg/mL)
- Activity (Micrococcus luteus): inactive
- Activity (Proteus vulgaris): inactive
- Activity (Mus musculus [13]): Non-toxic
- Activity [14]: inactive
- Activity (Colletotrichum): inactive
- Activity (Mycolicibacterium aurum [15]): inactive
- Activity [16]: Active
- MIC [17]: 0.95 µM (≈ 0.327 µg/mL)
- Activity (Mycobacterium avium [18]): inactive
- Activity [19]: inactive
- Activity (Mus musculus [20]): Non-toxic
- Activity [21]: inactive
- Activity (Bacillus subtilis): inactive

SMILES: C[C@@H]1OC(c2ccc(F)cc2[N+](=O)[O-])=N[C@@H]1C(=O)OCc1ccccc1
- IC50 (Vero): 38.1 µM
- MIC [12]: 12.5 µM (≈ 4.48 µg/mL)
- Activity [14]: inactive
- MIC [17]: 4.11 µM (≈ 1.47 µg/mL)

SMILES: O=C(OCc1ccccc1)c1coc(-c2ccc([N+](=O)[O-])c(F)c2)n1
- IC50 (Vero): > 128 µM
- MIC [12]: 35.4 µM (≈ 12.1 µg/mL)
- Activity [14]: inactive
- MIC [17]: 2.66 µM (≈ 0.91 µg/mL)

SMILES: Cc1oc(-c2ccc(F)cc2[N+](=O)[O-])nc1C(=O)OCc1ccccc1
- MIC [10]: > 128 µM
- IC50 (Vero): > 128 µM
- MIC [12]: 15 µM (≈ 5.34 µg/mL)
- Activity [14]: inactive
- MIC [17]: 4.62 µM (≈ 1.65 µg/mL)

SMILES: O=C(OCc1ccccc1)[C@@H]1COC(c2ccc([N+](=O)[O-])cc2)=N1
- IC50 (Vero): > 128 µM
- MIC [12]: 30.6 µM (≈ 9.99 µg/mL)
- Activity [14]: inactive
- MIC [17]: 7.59 µM (≈ 2.48 µg/mL)

SMILES: O=C(OCc1ccccc1)c1coc(-c2ccc(Br)nc2)n1
- MIC [10]: 25.1 µM (≈ 9.02 µg/mL)
- IC50 (Vero): > 128 µM
- MIC [12]: 2.54 µM (≈ 0.912 µg/mL)
- Activity [14]: inactive
- MIC [17]: 1.84 µM (≈ 0.661 µg/mL)

SMILES: O=C(OCc1ccccc1)[C@@H]1COC(c2ccc([N+](=O)[O-])c(F)c2)=N1
- MIC [10]: 59 µM (≈ 20.3 µg/mL)
- IC50 (Vero): > 128 µM
- MIC [12]: 30.2 µM (≈ 10.4 µg/mL)
- Activity [14]: inactive
- MIC [17]: 3.68 µM (≈ 1.27 µg/mL)

SMILES: Nc1ccc(-c2nc(C(=O)OCc3ccccc3)co2)cc1
- MIC [10]: 68.6 µM (≈ 20.2 µg/mL)
- IC50 (Vero): > 128 µM
- MIC [12]: 1.98 µM (≈ 0.583 µg/mL)
- Activity [14]: inactive
- MIC [17]: 3.67 µM (≈ 1.08 µg/mL)

SMILES: O=C(OCc1ccccc1)c1coc(-c2cccc(F)c2)n1
- IC50 (Vero): > 128 µM
- MIC [12]: 0.91 µM (≈ 0.271 µg/mL)
- Activity [14]: inactive
- MIC [17]: 1.42 µM (≈ 0.422 µg/mL)

SMILES: COc1ccc(-c2nc(C(=O)OCc3ccccc3)co2)cc1
- Stability (Liver microsomes): 14%
- Activity (Mycolicibacterium vaccae [1]): Active
- Activity (Mycolicibacterium aurum [2]): inactive
- Activity [3]: inactive
- Activity (Escherichia coli): inactive
- Activity (Mycobacterium avium [4]): inactive
- Activity (Mycobacterium avium [5]): inactive
- Activity (Mycolicibacterium vaccae [6]): inactive
- Activity (Mycobacterium avium [7]): inactive
- Activity (Staphylococcus aureus): inactive
- Activity (Mycobacterium avium [8]): inactive
- Activity (Mus musculus [9]): Non-toxic
- IC50 (Vero): > 128 µM
- Stability [11]: 0.4%
- Activity (Candida albicans): inactive
- MIC [12]: 1.72 µM (≈ 0.532 µg/mL)
- Activity (Micrococcus luteus): inactive
- Activity (Proteus vulgaris): inactive
- Activity (Mus musculus [13]): Non-toxic
- Activity [14]: inactive
- Activity (Colletotrichum): inactive
- Activity (Mycolicibacterium aurum [15]): inactive
- Activity [16]: Active
- MIC [17]: 1.8 µM (≈ 0.557 µg/mL)
- Activity (Mycobacterium avium [18]): inactive
- Activity [19]: inactive
- Activity (Mus musculus [20]): Non-toxic
- Activity [21]: inactive
- Activity (Bacillus subtilis): inactive

SMILES: COc1ccc(-c2nc(C(=O)OCc3ccccc3)co2)cc1F
- IC50 (Vero): > 128 µM
- MIC [12]: 5.55 µM (≈ 1.82 µg/mL)
- Activity [14]: inactive
- MIC [17]: 6.99 µM (≈ 2.29 µg/mL)

SMILES: O=C(OCc1ccccc1)c1coc(-c2ccc(Cl)cc2)n1
- MIC [10]: 56.2 µM (≈ 17.6 µg/mL)
- IC50 (Vero): > 128 µM
- MIC [12]: 18.9 µM (≈ 5.93 µg/mL)
- Activity [14]: inactive
- MIC [17]: 7.77 µM (≈ 2.44 µg/mL)

SMILES: O=C(OCc1ccccc1)c1coc(-c2ccccc2OCc2ccccc2)n1
- Stability (Liver microsomes): 13%
- Activity (Mycolicibacterium vaccae [1]): Active
- Activity (Mycolicibacterium aurum [2]): inactive
- Activity [3]: inactive
- Activity (Escherichia coli): inactive
- Activity (Mycobacterium avium [4]): inactive
- Activity (Mycobacterium avium [5]): inactive
- Activity (Mycolicibacterium vaccae [6]): inactive
- Activity (Mycobacterium avium [7]): inactive
- Activity (Staphylococcus aureus): inactive
- Activity (Mycobacterium avium [8]): inactive
- Activity (Mus musculus [9]): Non-toxic
- IC50 (Vero): > 128 µM
- Stability [11]: 4.2%
- Activity (Candida albicans): inactive
- MIC [12]: 62.6 µM (≈ 24.1 µg/mL)
- Activity (Micrococcus luteus): inactive
- Activity (Proteus vulgaris): inactive
- Activity (Mus musculus [13]): Non-toxic
- Activity [14]: inactive
- Activity (Colletotrichum): inactive
- Activity (Mycolicibacterium aurum [15]): inactive
- Activity [16]: Active
- MIC [17]: 10.3 µM (≈ 3.97 µg/mL)
- Activity (Mycobacterium avium [18]): inactive
- Activity [19]: inactive
- Activity (Mus musculus [20]): Non-toxic
- Activity [21]: inactive
- Activity (Bacillus subtilis): inactive

SMILES: O=C(OCc1ccccc1)[C@@H]1COC(c2ccc(OCc3ccccc3)c(F)c2)=N1
- IC50 (Vero): > 128 µM
- MIC [12]: 0.77 µM (≈ 0.312 µg/mL)
- Activity [14]: inactive
- MIC [17]: 1.42 µM (≈ 0.576 µg/mL)
